Measurements from patent US10428062B2, “Geminal substituted aminobenzisoxazole compounds as agonists of α7-nicotinic acetylcholine receptors” (Forum Pharmaceuticals, Inc., priority 2015, dated 2019).
Counter-ions that a name gives are not always drawn.

Biological target: human α7 nAChR (Homo sapiens, UniProt P36544)
Assay: not given
Type: binding
Conditions: above described assay provided by Cerep

Sequence of human α7 nAChR (P36544 23-502): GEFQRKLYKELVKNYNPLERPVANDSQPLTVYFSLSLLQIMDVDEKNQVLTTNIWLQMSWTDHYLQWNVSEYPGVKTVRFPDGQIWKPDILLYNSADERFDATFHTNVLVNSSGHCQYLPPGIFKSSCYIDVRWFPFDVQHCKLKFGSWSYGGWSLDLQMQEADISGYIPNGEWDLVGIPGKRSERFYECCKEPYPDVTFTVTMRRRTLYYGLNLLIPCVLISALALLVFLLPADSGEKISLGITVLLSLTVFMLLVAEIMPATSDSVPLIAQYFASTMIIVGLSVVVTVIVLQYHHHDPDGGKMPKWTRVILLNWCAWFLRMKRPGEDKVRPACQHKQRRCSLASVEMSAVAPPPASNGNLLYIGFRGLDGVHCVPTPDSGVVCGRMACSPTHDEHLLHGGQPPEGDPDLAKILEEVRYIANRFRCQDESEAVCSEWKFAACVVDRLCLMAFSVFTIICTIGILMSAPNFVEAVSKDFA

Cc1ccc(-c2ccc(OC3CN4CCC3CC4)cn2)cc1 (centres unmarked) [AQW051] showed a Ki of 0.255 µM.

Biological target: recombinantly expressed human α7-nAChR (Homo sapiens, UniProt P36544)
Sequence (P36544 23-502): as above
Assay: not given
Conditions: [125I] α-BTX radioligand, Feuerbach et al., Br. J. Pharmacol., 2014, read-out: Ki (lit); cited from earlier work

For Cc1ccc(-c2ccc(OC3CN4CCC3CC4)cn2)cc1 (centres unmarked) [AQW051], the Ki is listed as 0.028 µM.

Biological target: T1, human 5-HT3 serotonin receptors (Homo sapiens, UniProt P46098)
T1 sequence (P46098 24-478): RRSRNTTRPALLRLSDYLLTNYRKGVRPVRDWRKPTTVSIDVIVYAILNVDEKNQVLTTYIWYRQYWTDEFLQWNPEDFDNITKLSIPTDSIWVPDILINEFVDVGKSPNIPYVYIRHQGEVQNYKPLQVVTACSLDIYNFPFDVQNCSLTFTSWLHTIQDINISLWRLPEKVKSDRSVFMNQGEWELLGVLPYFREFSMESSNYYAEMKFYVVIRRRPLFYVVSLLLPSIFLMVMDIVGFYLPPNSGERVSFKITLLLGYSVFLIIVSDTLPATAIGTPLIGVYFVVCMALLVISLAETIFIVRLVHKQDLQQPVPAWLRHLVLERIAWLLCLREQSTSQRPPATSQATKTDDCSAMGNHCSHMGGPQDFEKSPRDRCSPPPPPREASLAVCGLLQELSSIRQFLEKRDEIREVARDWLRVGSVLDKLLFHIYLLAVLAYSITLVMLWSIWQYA
Assay: [3H]BRL 43694 competition binding assay (Cerep)
Conditions: not given

Going from Clc1ccc2c(NC3C4CCN(CC4)C34CC4)noc2c1 (racemic) [rac-16, 6-chloro-N-(1′-azaspiro[cyclopropane-1,2′-bicyclo[2.2.2]octan]-3′-yl)benzo[d]isoxazol-3-amine hydrochloride] to Clc1ccc2c(N[C@@H]3C4CCN(CC4)C34CC4)noc2c1Cl [(R)-19, (R)-6,7-dichloro-N-(1′-azaspiro[cyclopropane-1,2′-bicyclo[2.2.2]octan]-3′-yl)benzo[d]isoxazol-3-amine hydrochloride], the Ki falls from 1.8 µM to 0.1 µM (18-fold). The second binds more tightly here.

For Cc1ccc2c(N[C@@H]3C4CCN(CC4)C34CC4)noc2c1Cl [Compound (R)-28, (R)-7-chloro-6-methyl-N-(1′-azaspiro[cyclopropane-1,2′-bicyclo[2.2.2]octan]-3′-yl)benzo[d]isoxazol-3-amine hydrochloride], the Ki was 0.066 µM.

Same assay, conditions: CHO cell membranes expressing human 5-HT3 receptors, [3H]BRL 43694, 120 min at room temperature; read-out: h-5HT3 Ki

CC1(C)C(Nc2noc3cc(Cl)ccc23)C2CCN1CC2 (racemic) [rac-1, 6-chloro-N-(2,2-dimethylquinuclidin-3-yl)benzo[d]isoxazol-3-amine hydrochloride] and CC1(C)[C@H](Nc2noc3cc(Cl)ccc23)C2CCN1CC2 [Compound (R)-1, (R)-6-chloro-N-(2,2-dimethylquinuclidin-3-yl)benzo[d]isoxazol-3-amine] are within 1.5-fold of each other in Ki: 2.7 µM for the first, 2.6 µM for the second.

First: CC1(C)[C@H](Nc2noc3c(F)c(Cl)ccc23)C2CCN1CC2 [Compound (R)-2, (R)-6-chloro-N-(2,2-dimethylquinuclidin-3-yl)-7-fluorobenzo[d]isoxazol-3-amine hydrochloride]
Second: CC1(C)[C@H](Nc2noc3c(Cl)c(Cl)ccc23)C2CCN1CC2 [Compound (R)-4, (R)-6,7-dichloro-N-(2,2-dimethylquinuclidin-3-yl)benzo[d]isoxazol-3-amine hydrochloride]
The Ki of the first is 24-fold higher: 3.15 µM for the first, 0.13 µM for the second. The second binds more tightly here.

Compared with COc1ccc2c(N[C@@H]3C4CCN(CC4)C3(C)C)noc2c1 [Compound (R)-3, (R)—N-(2,2-dimethylquinuclidin-3-yl)-6-methoxybenzo[d]isoxazol-3-amine hydrochloride], Cc1ccc2c(N[C@@H]3C4CCN(CC4)C3(C)C)noc2c1 [Compound (R)-6, (R)—N-(2,2-dimethylquinuclidin-3-yl)-6-methylbenzo[d]isoxazol-3-amine hydrochloride] is lower in Ki: > 10 µM for the first, 3.5 µM for the second. The second binds more tightly here.

Going from COc1c(Cl)ccc2c(N[C@@H]3C4CCN(CC4)C3(C)C)noc12 [Compound (R)-5, (R)-6-chloro-N-(2,2-dimethylquinuclidin-3-yl)-7-methoxybenzo[d]isoxazol-3-amine hydrochloride] to CCOc1c(Cl)ccc2c(N[C@@H]3C4CCN(CC4)C3(C)C)noc12 [Compound (R)-12, (R)-6-chloro-N-(2,2-dimethylquinuclidin-3-yl)-7-ethoxybenzo[d]isoxazol-3-amine hydrochloride], the Ki rises from 0.45 µM to > 10 µM. The first binds more tightly here.

First: Cc1ccc2c(N[C@@H]3C4CCN(CC4)C3(C)C)noc2c1F [Compound (R)-7, (R)—N-(2,2-dimethylquinuclidin-3-yl)-7-fluoro-6-methylbenzo[d]isoxazol-3-amine hydrochloride]
Second: Cc1ccc2c(N[C@@H]3C4CCN(CC4)C3(C)C)noc2c1Cl [Compound (R)-13, (R)-7-chloro-N-(2,2-dimethylquinuclidin-3-yl)-6-methylbenzo[d]isoxazol-3-amine hydrochloride]
The Ki of the first is 14-fold higher: 2.1 µM for the first, 0.15 µM for the second. The second binds more tightly here.

Going from CC1(C)[C@H](Nc2noc3c(Cl)c(F)ccc23)C2CCN1CC2 [Compound (R)-8, (R)-7-chloro-N-(2,2-dimethylquinuclidin-3-yl)-6-fluorobenzo[d]isoxazol-3-amine hydrochloride] to Cc1c(Cl)ccc2c(N[C@@H]3C4CCN(CC4)C3(C)C)noc12 [Compound (R)-10, (R)-6-chloro-N-(2,2-dimethylquinuclidin-3-yl)-7-methylbenzo[d]isoxazol-3-amine hydrochloride], the Ki rises from 0.17 µM to 0.38 µM (2.2-fold). The first binds more tightly here.

Cc1cc2onc(N[C@@H]3C4CCN(CC4)C3(C)C)c2cc1F [Compound (R)-9, (R)—N-(2,2-dimethylquinuclidin-3-yl)-5-fluoro-6-methylbenzo[d]isoxazol-3-amine hydrochloride] and CC1(C)[C@H](Nc2noc3cc(Cl)c(F)cc23)C2CCN1CC2 [Compound (R)-11, (R)-6-chloro-N-(2,2-dimethylquinuclidin-3-yl)-5-fluorobenzo[d]isoxazol-3-amine hydrochloride] cannot be ordered by Ki: > 10 µM for the first, > 10 µM for the second.

Going from CC1(C)[C@H](Nc2noc3c(C(F)(F)F)c(Cl)ccc23)C2CCN1CC2 [Compound (R)-14, (R)-6-chloro-N-(2,2-dimethylquinuclidin-3-yl)-7-(trifluoromethyl)benzo[d]isoxazol-3-amine hydrochloride] to FC(F)(F)c1c(Cl)ccc2c(N[C@@H]3C4CCN(CC4)C34CC4)noc12 [Compound (R)-29, (R)-6-chloro-N-(1′-azaspiro[cyclopropane-1,2′-bicyclo[2.2.2]octan]-3′-yl)-7-(trifluoromethyl)benzo[d]isoxazol-3-amine hydrochloride], the Ki falls from > 10 µM to 4.3 µM.

Clc1ccc2c(N[C@@H]3C4CCN(CC4)C34CC4)noc2c1 [Compound (R)-16, (R)-6-chloro-N-(1′-azaspiro[cyclopropane-1,2′-bicyclo[2.2.2]octan]-3′-yl)benzo[d]isoxazol-3-amine] and Cc1ccc2c(N[C@@H]3C4CCN(CC4)C34CC4)noc2c1 [Compound (R)-21, (R)-6-methyl-N-(1′-azaspiro[cyclopropane-1,2′-bicyclo[2.2.2]octan]-3′-yl) benzo[d]isoxazol-3-amine hydrochloride] are within 1.5-fold of each other in Ki: 1.63 µM for the first, 1.6 µM for the second.

Compared with Fc1c(Cl)ccc2c(N[C@@H]3C4CCN(CC4)C34CC4)noc12 [Compound (R)-17, (R)-6-chloro-7-fluoro-N-(1′-azaspiro[cyclopropane-1,2′-bicyclo[2.2.2]octan]-3′-yl)benzo[d]isoxazol-3-amine hydrochloride], Cc1ccc2c(N[C@@H]3C4CCN(CC4)C34CC4)noc2c1F [Compound (R)-22, (R)-7-fluoro-6-methyl-N-(1′-azaspiro[cyclopropane-1,2′-bicyclo[2.2.2]octan]-3′-yl)benzo[d]isoxazol-3-amine hydrochloride] is 1.7-fold lower in Ki: 0.92 µM for the first, 0.54 µM for the second.

Compared with COc1ccc2c(N[C@@H]3C4CCN(CC4)C34CC4)noc2c1 [Compound (R)-18, (R)-6-methoxy-N-(1′-azaspiro[cyclopropane-1,2′-bicyclo[2.2.2]octan]-3′-yl)benzo[d]isoxazol-3-amine hydrochloride], COc1c(Cl)ccc2c(N[C@@H]3C4CCN(CC4)C34CC4)noc12 [Compound (R)-20, (R)-6-chloro-7-methoxy-N-(1′-azaspiro[cyclopropane-1,2′-bicyclo[2.2.2]octan]-3′-yl)benzo[d]isoxazol-3-amine hydrochloride] is lower in Ki: > 10 µM for the first, 0.2 µM for the second.

First: Fc1ccc2c(N[C@@H]3C4CCN(CC4)C34CC4)noc2c1Cl [Compound (R)-23, (R)-7-chloro-6-fluoro-N-(1′-azaspiro[cyclopropane-1,2′-bicyclo[2.2.2]octan]-3′-yl)benzo[d]isoxazol-3-amine hydrochloride]
Second: Cc1c(Cl)ccc2c(N[C@@H]3C4CCN(CC4)C34CC4)noc12 [Compound (R)-25, (R)-6-chloro-7-methyl-N-(1′-azaspiro[cyclopropane-1,2′-bicyclo[2.2.2]octan]-3′-yl)benzo[d]isoxazol-3-amine hydrochloride]
The Ki of the first is 1.5-fold lower: 0.11 µM for the first, 0.17 µM for the second. The first binds more tightly here.

Cc1cc2onc(N[C@@H]3C4CCN(CC4)C34CC4)c2cc1F [Compound (R)-24, (R)-5-fluoro-6-methyl-N-(1′-azaspiro[cyclopropane-1,2′-bicyclo[2.2.2]octan]-3′-yl) benzo[d]isoxazol-3-amine hydrochloride] and Fc1cc2c(N[C@@H]3C4CCN(CC4)C34CC4)noc2cc1Cl [Compound (R)-26, (R)-6-chloro-5-fluoro-N-(1′-azaspiro[cyclopropane-1,2′-bicyclo[2.2.2]octan]-3′-yl)benzo[d]isoxazol-3-amine hydrochloride] are within 1.5-fold of each other in Ki: 3.1 µM for the first, 2.8 µM for the second.

CCOc1c(Cl)ccc2c(N[C@@H]3C4CCN(CC4)C34CC4)noc12 [Compound (R)-27, (R)-6-chloro-7-ethoxy-N-(1′-azaspiro[cyclopropane-1,2′-bicyclo[2.2.2]octan]-3′-yl)benzo[d]isoxazol-3-amine hydrochloride] gave a Ki of 5.6 µM.
